Source: patent US11453632B2, “1-phenyl-2-phenylethane derivative” (KAO CORPORATION, priority 2018, dated 2022)

Experiments:
[1] = test system: prostate of testosterone-induced prostatic hyperplasia rat; test: Efficacy on prostate in testosterone-induced prostatic hyperplasia rat; type: in vivo; details: testosterone 3 mg/kg/day plus test substance 0.1 or 1 mg/kg body weight/day, subcutaneous osmotic pump, 28 days, vs testosterone alone
Description: 12-week-old male Slc:SD (SPF) rats were obtained from Japan SLC, Inc. An acclimatization period was established for 1 week after receipt. During the acclimatization period, the rats were allowed to freely ingest a powder diet (AIN-93G).
2) Implantation of Osmotic Pump
(§1) After body weight measurement, back hair was shaved under isoflurane (AbbVie GK) inhalation anesthesia, and carprofen was subcutaneously administered to the rats. Then, an incision of approximately 1 cm at the maximum was made on the cranial side in the back. An osmotic minipump Alzet (Muromachi Kikai Co., Ltd.) containing testosterone and compound 17-F or finasteride (Sigma-Aldrich Co. LLC) was subcutaneously implanted. From this osmotic pump, testosterone (3 mg/kg body weight/day) (Sigma-Aldrich Co. LLC) and compound 17-F (0.1 mg/body weight/day or 1 mg/kg body weight/day) or finasteride (0.1 mg/kg body weight/day or 1 mg/kg body weight/day) were continuously administered for 28 days. Since the implantation of the osmotic pump, the rats were allowed to freely ingest customized feed AIN-93G (Oriental Yeast Co., Ltd.) free from components derived from soybeans.
3) Photographing of Skin and Harvesting of Prostate
After a lapse of 28 days, body weights were measured, and subsequently, the rats were euthanized by blood letting under isoflurane anesthesia. Back hair was shaved, followed by photographing. Then, the abdominal cavity was opened to harvest the prostate on the ventral side. Wet weights were measured.

[2] = test system: back skin browning induced by testosterone; test: Effect on sebum secretion (back skin browning) in testosterone-treated rat; type: in vivo; details: testosterone 3 mg/kg/day plus test substance, subcutaneous osmotic pump, 28 days
Description: as §1, with “12-week-old male Slc:SD (SPF) rats were obtained from Japan SLC, Inc. An acclimatization period was established for 1 week after receipt. During the acclimatization period, the rats were allowed to freely ingest a powder diet (AIN-93G). 2) Implantation of Osmotic Pump After” for “After”, “soybeans. 3) Photographing of Skin and Harvesting of Prostate After a lapse of 28 days, body weights were measured, and subsequently, the rats were euthanized by blood letting under isoflurane anesthesia. […] Wet weights were measured. […]” for “soybeans.”

## CC(C)(C)NC(=O)[C@H]1CC[C@H]2[C@@H]3CC[C@H]4NC(=O)C=C[C@]4(C)[C@H]3CC[C@]12C [finasteride, reference compound]
[1]
  size of the prostate (visual, FIG. 1): Concentration-dependent decrease in the size of the prostate
  weight of the prostate corrected with the body weight (FIG. 2): decreased to almost the same level as in the DMSO administration group
[2]
  skin browning induced by testosterone (sebum secretion, FIG. 3): such an inhibitory effect was not confirmed
